Test results reported in PMC4286191 (MedChemComm, 2014).

Experiments:
[1] = biological target: purified recombinant LSD1 (Homo sapiens, UniProt O60341); assay: Fluorescence-based recombinant LSD1 inhibition assay; format: biochemical; conditions: residual activity at 10 μM; average of 3 determinations ± SEM; Table 2
CA46 Burkitt's lymphoma = assay: Cytotoxicity in CA46; format: cell-based
[2] = test system: MCF-10A human breast epithelial cell line; assay: Cytotoxicity in MCF-10A; format: cell-based

Row | Structure (SMILES) | % LSD1 Activity (10μM) [1] | Cytotoxicity in CA46 (CA46 Burkitt's lymphoma) | Cytotoxicity in MCF-10A [2]
1 | N=C(NCCCNCCCCCCCNCCCNC(=N)NC(=N)NCCC(c1ccccc1)c1ccccc1)NC(=N)NCCC(c1ccccc1)c1ccccc1 [Compound 2, verlindamycin] | 33.9 ± 6.7% |  | 
2 | COc1ccccc1CNc1n[nH]c(NCc2ccccc2OC)n1 [Compound 7, N^3,N[5]-bis(2-methoxybenzyl)-1H-1,2,4-triazole-3,5-diamine] |  | no significant cytotoxicity | no significant cytotoxicity
